According to patent US6054435A, “6-O-substituted macrolides having antibacterial activity” (priority 1999, dated 2000):
≈ marks a conversion by molar mass, not a printed value.

Assays:
Test in all cases: in vitro antibacterial activity (MIC), agar dilution
Type in all cases: cell-based
[1] = system: Mycobacterium smegmatis ATCC 114; settings: organism code UU; BHI agar, 35-37° C., 20 to 24 hours; unit assumed
Summary of the method: (§1)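 Test compound serially diluted in Brain Heart Infusion agar across twelve plates; inocula of 1:100 dilution (1:10 for slow growers such as Streptococcus) applied by Steers replicator. MIC taken visually as lowest concentration giving no growth, slight haze or sparse isolated colonies versus drug-free growth control.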

[2] = system: Streptococcus Pneumonia 5979; settings: organism code ZZ; BHI agar, 35-37° C., 20 to 24 hours; unit assumed
Summary of the method: as §1

[3] = system: Streptococcus pyogenes PIU 2548; settings: organism code NN; BHI agar, 35-37° C., 20 to 24 hours; unit assumed
Summary of the method: as §1

[4] = system: Streptococcus bovis A-5169; settings: organism code JJ; BHI agar, 35-37° C., 20 to 24 hours; unit assumed
Summary of the method: as §1

[5] = system: Staphylococcus aureus A5177; settings: organism code BB; BHI agar, 35-37° C., 20 to 24 hours; unit assumed
Summary of the method: as §1

[6] = system: Micrococcus luteus ATCC 9341; settings: organism code OO; BHI agar, 35-37° C., 20 to 24 hours; unit assumed
Summary of the method: (§2)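 Agar dilution on BHI agar with twelve successive compound dilutions; plates inoculated by Steers replicator with 1:100 culture dilutions (1:10 for slow growers such as Streptococcus). MIC is the lowest concentration giving no growth, slight haze or sparse colonies versus a drug-free control.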

[7] = system: Staphylococcus aureus A-5278; settings: organism code CC; BHI agar, 35-37° C., 20 to 24 hours; unit assumed
Summary of the method: as §1

[8] = system: Escherichia coli SS; settings: organism code RR; BHI agar, 35-37° C., 20 to 24 hours; unit assumed
Summary of the method: as §1

[9] = system: Staphylococcus aureus CMX 553; settings: organism code FF; BHI agar, 35-37° C., 20 to 24 hours; unit assumed
Summary of the method: as §1

[10] = system: Staphylococcus aureus 1775; settings: organism code GG; BHI agar, 35-37° C., 20 to 24 hours; unit assumed
Summary of the method: as §1

[11] = system: Staphylococcus aureus CMX 642A; settings: organism code DD; BHI agar, 35-37° C., 20 to 24 hours; unit assumed
Summary of the method: as §1

[12] = system: Streptococcus agalactiae CMX 508; settings: organism code KK; BHI agar, 35-37° C., 20 to 24 hours; unit assumed
Summary of the method: as §1

[13] = system: Streptococcus Pneumonia GYR 1171; settings: organism code YY; BHI agar, 35-37° C., 20 to 24 hours; unit assumed
Summary of the method: as §1

[14] = system: Nocardia Asteroides ATCC9970; settings: organism code VV; BHI agar, 35-37° C., 20 to 24 hours; unit assumed
Summary of the method: as §1

[15] = system: Streptococcus Pneumonia 5649; settings: organism code ZZA; BHI agar, 35-37° C., 20 to 24 hours; unit assumed
Summary of the method: as §1

[16] = system: Enterococcus faecium ATCC 8043; settings: organism code II; BHI agar, 35-37° C., 20 to 24 hours; unit assumed
Summary of the method: as §1

[17] = system: Escherichia coli JUHL; settings: organism code QQ; BHI agar, 35-37° C., 20 to 24 hours; unit assumed
Summary of the method: as §1

[18] = system: Streptococcus Pneumonia ATCC6303; settings: organism code XX; BHI agar, 35-37° C., 20 to 24 hours; unit assumed
Summary of the method: as §1

[19] = system: Staphylococcus aureus ATCC 6538P; settings: organism code AA; BHI agar, 35-37° C., 20 to 24 hours; unit assumed
Summary of the method: as §1

[20] = system: Escherichia coli DC-2; settings: organism code SS; BHI agar, 35-37° C., 20 to 24 hours; unit assumed
Summary of the method: as §1

[21] = system: Micrococcus luteus ATCC 4698; settings: organism code PP; BHI agar, 35-37° C., 20 to 24 hours; unit assumed
Summary of the method: as §2

[22] = system: Staphylococcus epidermidis 3519; settings: organism code HH; BHI agar, 35-37° C., 20 to 24 hours; unit assumed
Summary of the method: as §1

[23] = system: Candida albicans CCH 442; settings: organism code TT; BHI agar, 35-37° C., 20 to 24 hours; unit assumed
Summary of the method: as §1

[24] = system: Streptococcus pyogenes 930; settings: organism code MM; BHI agar, 35-37° C., 20 to 24 hours; unit assumed
Summary of the method: as §1

[25] = system: Haemophilis Influenzae DILL AMP R; settings: organism code WW; BHI agar, 35-37° C., 20 to 24 hours; unit assumed
Summary of the method: as §1

[26] = system: Staphylococcus aureus NCTC10649M; settings: organism code EE; BHI agar, 35-37° C., 20 to 24 hours; unit assumed
Summary of the method: as §1

[27] = system: Streptococcus pyogenes EES61; settings: organism code LL; BHI agar, 35-37° C., 20 to 24 hours; unit assumed
Summary of the method: as §1

Row | SMILES | MIC [1] | MIC [2] | MIC [3] | MIC [4] | MIC [5] | MIC [6] | MIC [7] | MIC [8] | MIC [9] | MIC [10] | MIC [11] | MIC [12] | MIC [13] | MIC [14] | MIC [15] | MIC [16] | MIC [17] | MIC [18] | MIC [19] | MIC [20] | further results
1 | CC[C@H]1OC(=O)[C@H](C)C(=O)[C@H](C)[C@@H](O[C@@H]2O[C@H](C)C[C@H](N(C)C)[C@H]2O)[C@](C)(OC/C=C/c2cncc(-c3nccs3)c2)C[C@@H](C)C(=O)[C@H](C)[C@H]2NC(=O)O[C@@]21C [Example 51] | 0.39 µg/mL (≈ 0.488 µM) | > 128 µg/mL | 0.2 µg/mL (≈ 0.25 µM) | 0.01 µg/mL (≈ 0.0125 µM) | 0.05 µg/mL (≈ 0.0626 µM) | 0.01 µg/mL (≈ 0.0125 µM) | > 100 µg/mL | 0.2 µg/mL (≈ 0.25 µM) | 0.1 µg/mL (≈ 0.125 µM) | > 100 µg/mL | 0.1 µg/mL (≈ 0.125 µM) | 0.01 µg/mL (≈ 0.0125 µM) | ≤ 0.004 µg/mL | 0.05 µg/mL (≈ 0.0626 µM) | 0.25 µg/mL (≈ 0.313 µM) | 0.05 µg/mL (≈ 0.0626 µM) | 100 µg/mL (≈ 125 µM) | ≤ 0.004 µg/mL | 0.1 µg/mL (≈ 0.125 µM) | 25 µg/mL (≈ 31.3 µM) | MIC [21]: 0.2 µg/mL (≈ 0.25 µM); MIC [22]: 0.1 µg/mL (≈ 0.125 µM); MIC [23]: > 100 µg/mL; MIC [24]: 6.2 µg/mL (≈ 7.76 µM); MIC [25]: 2 µg/mL (≈ 2.5 µM); MIC [26]: 0.1 µg/mL (≈ 0.125 µM); MIC [27]: 0.02 µg/mL (≈ 0.025 µM)
2 | CC[C@H]1OC(=O)[C@H](C)C(=O)[C@H](C)[C@@H](O[C@@H]2O[C@H](C)C[C@H](N(C)C)[C@H]2O)[C@](C)(OC/C=C/c2ccc3ncc(Br)cc3c2)C[C@@H](C)C(=O)[C@H](C)[C@H]2NC(=O)O[C@@]21C [Example 38] | 0.39 µg/mL (≈ 0.462 µM) | 2 µg/mL (≈ 2.37 µM) | 0.2 µg/mL (≈ 0.237 µM) | ≤ 0.005 µg/mL | 0.2 µg/mL (≈ 0.237 µM) | 0.05 µg/mL (≈ 0.0592 µM) | 100 µg/mL (≈ 118 µM) | 0.78 µg/mL (≈ 0.923 µM) | 0.2 µg/mL (≈ 0.237 µM) | 100 µg/mL (≈ 118 µM) | 0.2 µg/mL (≈ 0.237 µM) | 0.02 µg/mL (≈ 0.0237 µM) | 0.03 µg/mL (≈ 0.0355 µM) | 0.05 µg/mL (≈ 0.0592 µM) | 0.25 µg/mL (≈ 0.296 µM) | 0.05 µg/mL (≈ 0.0592 µM) | 100 µg/mL (≈ 118 µM) | 0.03 µg/mL (≈ 0.0355 µM) | 0.2 µg/mL (≈ 0.237 µM) | > 100 µg/mL | MIC [21]: 0.2 µg/mL (≈ 0.237 µM); MIC [22]: 0.2 µg/mL (≈ 0.237 µM); MIC [23]: > 100 µg/mL; MIC [24]: 3.1 µg/mL (≈ 3.67 µM); MIC [25]: 2 µg/mL (≈ 2.37 µM); MIC [26]: 0.2 µg/mL (≈ 0.237 µM); MIC [27]: 0.02 µg/mL (≈ 0.0237 µM)
3 | CC[C@H]1OC(=O)[C@H](C)C(=O)[C@H](C)[C@@H](O[C@@H]2O[C@H](C)C[C@H](N(C)C)[C@H]2O)[C@](C)(OC/C=C/c2ccc(-c3nccs3)s2)C[C@@H](C)C(=O)[C@H](C)[C@H]2NC(=O)O[C@@]21C [Example 63] | 0.39 µg/mL (≈ 0.485 µM) | 8 µg/mL (≈ 9.95 µM) | 0.2 µg/mL (≈ 0.249 µM) | 0.05 µg/mL (≈ 0.0622 µM) | 0.1 µg/mL (≈ 0.124 µM) | 0.05 µg/mL (≈ 0.0622 µM) | > 100 µg/mL | 0.1 µg/mL (≈ 0.124 µM) | 0.1 µg/mL (≈ 0.124 µM) | > 100 µg/mL | 0.1 µg/mL (≈ 0.124 µM) | 0.05 µg/mL (≈ 0.0622 µM) | 0.008 µg/mL (≈ 0.00995 µM) | 0.05 µg/mL (≈ 0.0622 µM) | 0.25 µg/mL (≈ 0.311 µM) | 0.05 µg/mL (≈ 0.0622 µM) | 100 µg/mL (≈ 124 µM) | 0.008 µg/mL (≈ 0.00995 µM) | 0.1 µg/mL (≈ 0.124 µM) | 100 µg/mL (≈ 124 µM) | MIC [21]: 0.1 µg/mL (≈ 0.124 µM); MIC [22]: 0.2 µg/mL (≈ 0.249 µM); MIC [23]: > 100 µg/mL; MIC [24]: 6.2 µg/mL (≈ 7.71 µM); MIC [25]: 4 µg/mL (≈ 4.97 µM); MIC [26]: 0.1 µg/mL (≈ 0.124 µM); MIC [27]: 0.05 µg/mL (≈ 0.0622 µM)
4 | CC[C@H]1OC(=O)[C@H](C)C(=O)[C@H](C)[C@@H](O[C@@H]2O[C@H](C)C[C@H](N(C)C)[C@H]2O)[C@](C)(OC/C=C/c2ccc(-c3ccsc3)s2)C[C@@H](C)C(=O)[C@H](C)[C@H]2NC(=O)O[C@@]21C [Example 76] | 0.78 µg/mL (≈ 0.971 µM) | 16 µg/mL (≈ 19.9 µM) | 0.1 µg/mL (≈ 0.125 µM) | ≤ 0.005 µg/mL | 0.1 µg/mL (≈ 0.125 µM) | 0.05 µg/mL (≈ 0.0623 µM) | 100 µg/mL (≈ 125 µM) | 0.2 µg/mL (≈ 0.249 µM) | 0.1 µg/mL (≈ 0.125 µM) | 100 µg/mL (≈ 125 µM) | 0.1 µg/mL (≈ 0.125 µM) | 0.01 µg/mL (≈ 0.0125 µM) | ≤ 0.004 µg/mL | 0.1 µg/mL (≈ 0.125 µM) | 0.125 µg/mL (≈ 0.156 µM) | 0.02 µg/mL (≈ 0.0249 µM) | 100 µg/mL (≈ 125 µM) | ≤ 0.004 µg/mL | 0.1 µg/mL (≈ 0.125 µM) | 100 µg/mL (≈ 125 µM) | MIC [21]: 0.2 µg/mL (≈ 0.249 µM); MIC [22]: 0.1 µg/mL (≈ 0.125 µM); MIC [23]: > 100 µg/mL; MIC [24]: 3.1 µg/mL (≈ 3.86 µM); MIC [25]: 8 µg/mL (≈ 9.96 µM); MIC [26]: 0.05 µg/mL (≈ 0.0623 µM); MIC [27]: 0.01 µg/mL (≈ 0.0125 µM)
5 | CC[C@H]1OC(=O)[C@H](C)C(=O)[C@H](C)[C@@H](O[C@@H]2O[C@H](C)C[C@H](N(C)C)[C@H]2O)[C@](C)(OC/C=C/c2nc(-c3cccnc3)cs2)C[C@@H](C)C(=O)[C@H](C)[C@H]2NC(=O)O[C@@]21C [Example 65] | 0.78 µg/mL (≈ 0.976 µM) | > 128 µg/mL | 0.1 µg/mL (≈ 0.125 µM) | ≤ 0.005 µg/mL | 0.1 µg/mL (≈ 0.125 µM) | 0.02 µg/mL (≈ 0.025 µM) | > 100 µg/mL | 0.2 µg/mL (≈ 0.25 µM) | 0.1 µg/mL (≈ 0.125 µM) | > 100 µg/mL | 0.1 µg/mL (≈ 0.125 µM) | 0.01 µg/mL (≈ 0.0125 µM) | ≤ 0.004 µg/mL | 0.02 µg/mL (≈ 0.025 µM) | 0.25 µg/mL (≈ 0.313 µM) | 0.02 µg/mL (≈ 0.025 µM) | 100 µg/mL (≈ 125 µM) | 0.008 µg/mL (≈ 0.01 µM) | 0.1 µg/mL (≈ 0.125 µM) | 25 µg/mL (≈ 31.3 µM) | MIC [21]: 0.1 µg/mL (≈ 0.125 µM); MIC [22]: 0.1 µg/mL (≈ 0.125 µM); MIC [23]: > 100 µg/mL; MIC [24]: 50 µg/mL (≈ 62.6 µM); MIC [25]: 2 µg/mL (≈ 2.5 µM); MIC [26]: 0.1 µg/mL (≈ 0.125 µM); MIC [27]: 0.01 µg/mL (≈ 0.0125 µM)
